From patent US20070082952A1, “Pharmaceutical compositions, methods of preparation thereof, and methods of treatment” (priority 2005, published 2007)

Columns and labels:
[1] = aqueous solubility; format: physicochemical
Source text: An obstacle to the use of 3-biphenyl-4-yl-(2S)-[(4′-trifluoromethyl-biphenyl-4-carbonyl)-amino]-propionic acid in certain pharmacological forms is its aqueous solubility (less than 0.5 micrograms/milliliter (μg/mL)), which may make the bioavailability of biphenyl-4-yl-(2S)-[(4′-trifluoromethyl-biphenyl-4-carbonyl)-amino]-propionic acid lower than desirable. A composition of the present invention, having an increased dissolution rate, advantageously enhances the bioavailability of 3-biphenyl-4-yl-(2S)-[(4′-trifluoromethyl-biphenyl-4-carbonyl)-amino]-propionic acid, particularly when dosed orally.

[2] = Dissolution, USP method 2 (paddles at 75 rpm, 0.025 M NaH2PO4 with 2% SDS, pH 6.8); format: physicochemical; conditions: 2×100 mg, pH 6.8, paddles 75 rpm
Experimental: Dissolution of the wet granulation tablets of Example 1 and the dry formulation capsules of Example 2 was determined using USP method 2 (paddles at 75 rpm, 0.025 M NaH2PO4 with 2% sodium dodecyl sulfate (SDS), pH 6.8).

For O=C(N[C@@H](Cc1ccc(-c2ccccc2)cc1)C(=O)O)c1ccc(-c2ccc(C(F)(F)F)cc2)cc1 [3-biphenyl-4-yl-(2S)-[(4′-trifluoromethyl-biphenyl-4-carbonyl)-amino]-propionic acid], the aqueous solubility [1] was “less than 0.5 μg/mL”, the “Percent 3-Biphenyl-4-yl-(2S)-[(4′-trifluoromethyl-biphenyl-4-carbonyl)-amino]-propionic acid Dissolved” value ([2]; Time 0 min) was 0% and the “Percent 3-Biphenyl-4-yl-(2S)-[(4′-trifluoromethyl-biphenyl-4-carbonyl)-amino]-propionic acid Dissolved” value ([2]; Time 15 min) was 43.2%. For the same molecule, the “Percent 3-Biphenyl-4-yl-(2S)-[(4′-trifluoromethyl-biphenyl-4-carbonyl)-amino]-propionic acid Dissolved” value ([2]; Time 30 min) was 57.0%, the “Percent 3-Biphenyl-4-yl-(2S)-[(4′-trifluoromethyl-biphenyl-4-carbonyl)-amino]-propionic acid Dissolved” value ([2]; Time 45 min) was 67.3% and the “Percent 3-Biphenyl-4-yl-(2S)-[(4′-trifluoromethyl-biphenyl-4-carbonyl)-amino]-propionic acid Dissolved” value ([2]; Time 60 min) was 73.9%.
